Results reported in patent US20250235429A1, “TREATMENT OF DISEASES VIA ADMINISTRATION OF BUNTANETAP AND AN ANTIDIABETIC AGENT” (ANNOVIS BIO, INC., priority 2024, published 2025).

Key:
[1] = in vivo; cited from earlier work
[2] = system: hippocampal slices APP/PS1 transgenic mice; experiment: Electrophysiological study: long-term potentiation (LTP) in hippocampal slices; type: in vivo
Method: (§1) Animals: Heterozygous double transgenic mice expressing both human APP (K670N:M671L) and human PS1 (M146L) (line 6.2) and their wild-type non-transgenic littermates, both males and females, were used for these experiments. They were obtained by a breeding colony maintained at the animal facility of Columbia University. They were genotyped through PCR on tail samples. Animals were injected i.p. from the age of […] for 1 month prior to starting behavioral assessment which lasted for 2 weeks during which treatment continued. Behavioral assessment examined spatial and associative memory. Finally, mice were sacrificed for electrophysiological assessment of synaptic function.
(§2) Mice were coded to blind investigators with respect to genotype and treatment. Results were expressed with Standard Error of the Mean (SEM). Level of significance was set for p<0.05. Results were analyzed by ANOVA analysis with post-hoc correction with the combination or genotype as main effect. Experiments were designed in a balanced fashion, and mice were trained and tested at each of the different conditions in 3 or 4 separate experiments.
Mice were i.p. injected with the drug from the age of 8 weeks prior to plaque appearance until euthanasia for collecting slices at the age of 14-16 weeks. The treatment with Buntanetap was daily, whereas the treatment with dulaglutide was twice a week.
Electrophysiological analysis was performed on 400 μm hippocampal slices, cut with a tissue chopper and maintained in an interface chamber at 29° C. for 90 min prior to recording. Briefly, CA1 fEPSPs were recorded by placing both the stimulating and the recording electrodes in CA1 stratum radiatum. Basal synaptic transmission was assayed, either by plotting the stimulus voltages against slopes of fEPSP, or by plotting the peak amplitude of the fiber volley against the slope of the fEPSP. For LTP experiments, a 15 min baseline was recorded every min at an intensity that evokes a response ˜35% of the maximum evoked response. LTP was induced using θ-burst stimulation (4 pulses at 100 Hz, with the bursts repeated at 5 Hz and each tetanus including 3 ten-burst trains separated by 15 see). Data was subjected to statistical analyses to determine the effects of combination on inhibiting synaptic dysfunction.

APP/PS1 transgenic mice [3] = experiment: Contextual fear conditioning (FC), associative memory; type: in vivo; details: Buntanetap 1 mg/Kg and/or dulaglutide 0.1 mg/Kg
Method: as §1
Mice were coded to blind investigators with respect to genotype and treatment. Results were expressed with Standard Error of the Mean (SEM). […] Results were analyzed by ANOVA analysis with post-hoc correction with the combination or genotype as main effect. […]
The combination effect on associative memory was assessed through fear conditioning (FC). […] Freezing behavior, defined as the absence of movements except for that needed for breathing, was scored using Noldus software. Contextual fear learning, a type of memory for which hippocampal function is indispensable, was evaluated 24 hrs after training by measuring freezing responses for 5 min in the same chamber where the mice have been trained. […]

APP/PS1 transgenic mice [4] = experiment: 2-day radial arm water maze (RAWM), spatial memory; type: in vivo
Method: as §1, §2
Mice were i.p. injected with the drug from the age of 8 weeks prior to plaque appearance until behavioral assessment that started at 12 weeks of age and lasted for 2 weeks.
Spatial memory was studied with the 2-day radial arm water maze (RAWM) test. The task is a hybrid of the Morris Water Maze (MWM) and the radial arm land maze. The motivation for the animals is immersion in water. The mouse needs to swim in 6 alleys (arms) radiating from a central area until it finds a hidden (submerged) platform at the end of one of the arms, based on visual cues placed in the room. In the old RAWM version of the task, the goal arm varies from day to day, requiring 21 days of training in wild-type mice to reach the learning criterion. In the new version of the task, the goal arm is kept constant for all trials, with a different start arm on successive trials, such that the learning criterion will be reached in 2 days. The first day of the protocol was a training day. Mice were trained to identify the platform location by alternating between a visible and a hidden platform in a goal arm. The final 3 trials on day 1 and all 15 trials on day 2 used a hidden escape platform to force mice to use spatial cues to identify the location of the goal arm. To avoid learning limitations imposed by exhausting practice and to avoid fatigue that may result from consecutive trials, spaced practice training was established by running the mice in cohorts of 4 and alternating different cohorts through the 15 training trials over 3 hours testing periods each day. On day 1, a visible platform was laced in a goal location. Mouse 1 of cohort 1 was gently placed in the pool near the perimeter of the wall of the first start arm (specified on a score sheet) and facing the center of the pool. The number of incorrect arm entries (entries in arms with no platform) was counted. If the animal enters the incorrect arm it was gently pulled back to the start arm. Each trial lasted up to 1 min. Failure to select an arm after 15 sec was counted as an error and the mouse was returned to the start arm. After 1 min, if the platform had not been located, the mouse was guided gently through the water by placing a hand behind it to direct it towards the platform. The mouse rested on the platform for 15 sec. After completing the trial, the mouse was removed from the pool, gently towel dried and placed back into its cage under a heat lamp. The goal platform location was different for each mouse. […] After each mouse from cohort 1 completed six alternating trials between visible and hidden platforms, the mice were left to rest under a heating source, and mice from the second cohort were tested in the same way.

[5] = APP/PS1 mice, Buntanetap 1 mg/Kg and/or dulaglutide 0.1 mg/Kg

Substance | onset [1] | peak concentration occurs after administration [1] | % Improvement (Residual Potential) ([2]; APP/PS1, dulaglutide 0.1 mg/kg) | Residual Potential (mean) ([2]; APP/PS1, dulaglutide 0.1 mg/kg i.p. twice a week) | % Improvement (Residual Potential) ([2]; APP/PS1, dulaglutide 0.3 mg/kg) | Residual Potential (mean) ([2]; APP/PS1, dulaglutide 0.3 mg/kg i.p. twice a week) | % Improvement (Residual Potential) ([2]; APP/PS1, dulaglutide 0.6 mg/kg) | Residual Potential (mean) ([2]; APP/PS1, dulaglutide 0.6 mg/kg i.p. twice a week) | impairment of synaptic plasticity measured through Long-term potentiation (LTP) [2, 5] | impairment of associative memory measured through contextual fear conditioning (FC) (APP/PS1 transgenic mice [3]) | % Improvement (RAWM errors) (APP/PS1 transgenic mice [4]; APP/PS1, dulaglutide 0.1 mg/kg) | Meran Number of Errors (RAWM) (APP/PS1 transgenic mice [4]; APP/PS1, dulaglutide 0.1 mg/kg) | % Improvement (RAWM errors) (APP/PS1 transgenic mice [4]; APP/PS1, dulaglutide 0.3 mg/kg) | Meran Number of Errors (RAWM) (APP/PS1 transgenic mice [4]; APP/PS1, dulaglutide 0.3 mg/kg) | % Improvement (RAWM errors) (APP/PS1 transgenic mice [4]; APP/PS1, dulaglutide 0.6 mg/kg) | Meran Number of Errors (RAWM) (APP/PS1 transgenic mice [4]; APP/PS1, dulaglutide 0.6 mg/kg) | impairment of short-term spatial memory measured through the 2-day radial arm water maze (RAWM) (APP/PS1 transgenic mice [4]; [5])
Insulin glulisine: insulin commercially available as Apidra® | 5 to 15 min |  |  |  |  |  |  |  |  |  |  |  |  |  |  |  | 
Insulin detemir | about 1 hours | 3 to 14 h |  |  |  |  |  |  |  |  |  |  |  |  |  |  | 
dulaglutide: GLP-1 agonist, commercially available as Trulicity® |  |  | 21.4% | 155.52 | 32.3% | 164.68 | 71.1% | 197.26 | did not ameliorate | did not ameliorate | 23.5% | 2.9 | 47.1% | 2.5 | 88.2% | 1.8 | did not ameliorate
